# Reference: patent US9850221B2, “Sulfated and unsulfated flavonoid oligomers as cancer therapeutics” (VIRGINIA COMMONWEALTH UNIVERSITY, priority 2013, dated 2017)
# Legend:
# [1] = system: self-renewal factors OCT4, BMI-1, c-MYC; test: Western blot of self-renewal factors in spheroids; assay type: cell-based, human; conditions: 100 μM, HT-29
# Experimental: (§1) Western Blotting Analysis. Western blot analysis was performed according to the standard protocol described in the literature. Briefly, HT-29 cells were plated in serum-free SCM in a low adhesion 6-well plate to obtain spheroids. Mature spheroids were treated on day 4 after plating, with vehicle or NSGMs for indicated time and cells were solubilized in lysis buffer (20 mM Na3PO4, 100 mM NaCl, 2 mM EDTA, 1% Nonidet P-40, 2.5 mM Na3VO4) containing protease (Roche) as well as phosphatase inhibitor cocktails (Sigma). Following centrifugation at 14,000 g for 15 min, the supernatant was used for Western blot analysis. In all analyses, protein concentration was determined by the Bio-Rad Protein Assay kit (Bio-Rad). Approximately 25-50 μg of protein was separated by polyacrylamide gel electrophoresis and was transferred to PVDF membrane (Bio-Rad). Blocking was done with 5% low fat milk powder for 1 hr followed by overnight incubation with primary antibody (dilution 1:1000): anti-CD44 (Cell Signaling), anti-EpCAM (Cell Signaling), anti-LGR5 (Origene), anti-CD133 ((Miltenyi Biotec), anti-CXCR4 (Abeam), anti-OCT4 (Cell Signaling), anti-BMI-1 (Millipore), anti-c-MYC (Millipore) and anti-CK20 (Abeam). This was followed by incubation with appropriate secondary antibody and protein bands were visualized using the enhanced chemiluminescence detection system and imaged with LAS-3000 Imaging System (FUJIFILM). Densitometry was determined by AIDA image analyzer software (Raytest) and results were calculated as relative intensity compared to control. All experiments were performed at least three times.
# [2] = system: HCT-116 cells, grown in spheroid condition; test: Apoptosis assay (annexin V/propidium iodide and acridine orange/ethidium bromide); assay type: cell-based, human; conditions: for induction of apoptosis in spheroid cells: annexin V labeling and acridine orange/ethidium bromide staining, 100 μM, 24 hours, vs vehicle
# Experimental: Apoptosis Assay. Human colon cancer HCT-116 cells, grown in spheroid condition were treated with vehicle or NSGMs for 24 hours. Following which cells were trypsinized and single cells were re-suspended at 10^6 cells/mL in PBS buffer. Two different methods were used to assess apoptosis induction. In the first methods, cells were incubated with propidium iodide and Annexin V-APC (ebioscience) and flow cytometric analyses were performed as above. […] Briefly, a small volume of cell suspension was mounted on a glass slide and incubated with 1 μl of AO/EB solution and mixed gently just prior to microscopy and quantification. At least 500 cells in 10-15 fields were examined in each sample using Nikon ECLIPSE E800M fluorescence microscope using 20× objective. […] The data was expressed as apoptosis index=[([apoptotic cells (NSGMs)/total cells (NSGMs)]/[apoptotic cells (vehicle)/total cells (vehicle)]).
# HT-29 cells = test: Primary (1°) colonosphere formation assay, HT-29 (Screen 1); assay type: cell-based, human
# Experimental: (§2) Primary (1°) Colonosphere Formation Assay. For primary sphere formation, cells were plated in non-treated, low adhesion, 96 wells plate at the concentration of 100 cells/100 μL/well in stem cell media (SCM) that consisted of DMEM:F12:AA (Gibco), supplemented with 1×B27 (Gibco), 20 ng/mL epidermal growth factor and 10 ng/mL fibroblast growth factor (Sigma). After four hour of incubation, vehicle (control) or NSGM at the desired concentrations were added to each well (at least in triplicates for each sample). On day five, numbers of spheres ranging from […] in diameter were counted using phase contrast microscope and percent inhibition was calculated compared to control.
# (§3) In this screen, sulfated NSGMs that inhibit HT-29 growth under spheroid conditions, but not under monolayer conditions, were then assessed for retention of 2° and 3° spheroid growth inhibition profiles in the absence of NSGM. The latter screen is of particular importance as primary spheroid growth although selective for CSCs doses not distinguish between non self-renewing progenitors and self-renewing CSCs. […] These 11 NSGMs belonged to G2, G4, G11 and G12 scaffolds but only four of the six G2 molecules, one of the two G4, four of the seven G11 and two of the five G12 molecules satisfied the first screen.
# LGR5 = test: Flow cytometry analysis of CSC markers in HT-29 spheroids; assay type: cell-based, human; conditions: 100 μM, vs vehicle-treated controls
# Experimental: Flow Cytometry Analysis. Human colon cancer HT-29 cells, grown in spheroid or monolayer condition were treated with vehicle or NSGMs for 24 hours, were trypsinized and single cells were re-suspended at 10^6 cells/mL in PBS buffer. Cells were incubated with fluorophore conjugated antibody for 30 minutes at 4° C. and washed once with PBS buffer prior to analysis. Following antibody and dilution were used: LGR5-PE) (Dilution 1:50, Origene), DCLK1 (Dilution 1:33, Abeam). Cell sorting was performed using FACSAria™ II High-Speed Cell Sorter (BD Biosciences) and data were analyzed with FCS Express 4 Flow Cytometry software (De-Novo Software).
# [3] = system: CSC markers CD44, CD133, EpCAM, LGR5, CXCR-4; test: Western blot of CSC markers in HT-29 spheroids; assay type: cell-based, human; conditions: 100 μM; for reduction of expression of CSC markers (CD44, CD133, EpCAM, LGR5, CXCR-4): HT-29 spheroids, Western blot densitometry vs vehicle
# Experimental: as §1
# HCT116 cells = test: Mice tumor xenograft model, intratumoral G2.2; assay type: in vivo, NOD-SCID mice
# Experimental: One million HCT116 cells were washed with PBS and injected subcutaneously (0.2 mL cell suspension in 50% matrigel) into 6-week-old NOD-SCID mice (Taconic Incorporation, Germantown, N.Y.) on both flanks. Once the tumors become palpable, 16 mice were randomized into two groups. In the treatment group, animals received direct intratumoral (IT) injection of appx 1.125 mg of G2.2 dissolved in 75 μl PBS (pH=7.4) solution three times a week for three weeks (a total of 10 mg of G2.2 over three weeks). Control animals were also received IT injection with 75 μl of vehicle alone (PBS) on the same schedule. Tumor size was measured three times a week using caliber and tumor volume was calculated as previously described. Mice were also weighed three times a week. All the animals were sacrificed within 1 week after completion of therapy using approved method of CO2 asphyxiation. Tumor xenografts were minced with scalpels blade into small pieces and then digested in DMEM/F12 medium containing 300 units/mL collagenase (Stem Cell Technologies) and 100 units/mL hyaluronidase (Stem Cell Technologies) for 1 hr at 37° C. Cells were then washed and re-suspended to a final concentration of 10^6 cell/mL in DMEM/2% FBS. Cell suspensions from the tumor samples were incubated with PE conjugated LGR5 or CXCR4 antibody for 30 minutes and washed two times with PBS buffer and then analyzed (FIG. 18A-B). […] However, none of these values were statistically significant (p>0.1).
# HT-29 colon cancer cells = test: Cell cycle distribution in spheroid cells; assay type: cell-based, human; conditions: 24 hours, 100 μM, vs vehicle
# CK20 = test: Differentiation assay (CK20 expression) in colonosphere cells; assay type: cell-based, human; conditions: spheroid cells on collagen, 2.5% serum, Western blot and immunocytochemistry
# Experimental: Differentiation Assay. Single cell suspension from mature HT-29 colonosphere pre-treated with vehicle or G2.2 for 24 hours were plated on collagen coated glass cover slips or flasks in the presence of media supplemented with 2.5% FBS containing G2.2 or vehicle. At indicated time points, cells lysate was examined for CK-20 expression with western-blot as above. Alternatively, cells were fixed with 4% paraformaldehyde for 20 minutes at room temperature, permeabilized for 5 min in 0.5% Triton X-100 solution and blocked in PBS containing 1% BSA for one hour prior to incubation with anti-CK-20 antibody (Abeam) for 2 hours. Cells were then washed, incubated for 60 min with Alexa Fluor conjugate secondary antibodies, rinsed with blocking buffer and mounted on slides with DAPI containing ProLong® Gold Antifade Reagent (Invitrogen). Fluorescently labeled cells were examined using a Zeiss LSM700 laser scanning confocal microscope (Zeiss Micro imaging Inc.). Alexa Flour® 555 signals were imaged sequentially at 40× magnification in frame-interlaced mode to eliminate cross talk between channels.
# CSC markers mRNA = test: Real-time PCR of CSC marker mRNA; assay type: cell-based, human; conditions: 6 hours following treatment
# Experimental: Real-Time PCR Analysis. Total RNA was isolated using the mirVana™ miRNA Isolation Kit (Life technologies, Grand Island, N.Y.). 1 μg total RNA was reverse transcribed using First-Strand cDNA Synthesis Kit using hexamer reverse primer (Affymetrix). Real time QPCR was performed using RT^2 SYBR® Green qPCR Master mix (Qiagen) in a 7500 fast real time machine (Applied Biosystem). Relative expressions of mRNA were calculated using ΔΔCT methods using GAPDH as a loading control.
# HCT-116 = test: Primary spheroid formation assay, HCT-116; assay type: cell-based, human; conditions: HCT-116 (p53 null)
# Experimental: as §2, §3
# [4] = system: Panc-1 (pancreatic) cancer cell lines; test: Primary spheroid formation assay, Panc-1; assay type: cell-based, human
# Experimental: as §2
# HT-29 cell line = test: MTT cell proliferation assay, monolayer growth; assay type: cell-based, human; conditions: monolayer conditions
# Experimental: Cell Proliferation Assay. Cell proliferation was evaluated by (3-(4,5-dimethylthiazol-2-yl)-2,5-diphenyltetrazolium bromide) MTT cell proliferation assay. For HT-29 cell line approximately 2.5×10^3 cells/100 μL/well were plated in 96-well tissue culture treated plate. After overnight incubation at 37° C. vehicle (control) or NSGM was added at the desired concentration and the cells were further incubated for 60-72 h. At the end of the incubation, 10 μL of 5 mg/mL MTT solution (Sigma) made in phosphate buffered saline (PBS) (Gibco) was added to each well and incubated for minimum of 2 to 3 hr until crystals formation was observed. Following this, 150 μL of 4 mM HCl (Sigma) in isopropanol solution was added drop wise to each well and the mixture was triturated until the crystals dissolve completely. Finally, the plate was placed on the spectrophotometer reader and read at 590 nm and growth inhibition was calculated as percent of control.
# [5] = Animal weight in mice tumor xenograft model; assay type: in vivo, NOD-SCID mice; conditions: intratumoral, appx 1.125 mg three times a week for three weeks
# Experimental: One million HCT116 cells were washed with PBS and injected subcutaneously (0.2 mL cell suspension in 50% matrigel) into 6-week-old NOD-SCID mice (Taconic Incorporation, Germantown, N.Y.) on both flanks. Once the tumors become palpable, 16 mice were randomized into two groups. In the treatment group, animals received direct intratumoral (IT) injection of appx 1.125 mg of G2.2 dissolved in 75 μl PBS (pH=7.4) solution three times a week for three weeks (a total of 10 mg of G2.2 over three weeks). Control animals were also received IT injection with 75 μl of vehicle alone (PBS) on the same schedule. Tumor size was measured three times a week using caliber and tumor volume was calculated as previously described. Mice were also weighed three times a week. All the animals were sacrificed within 1 week after completion of therapy using approved method of CO2 asphyxiation. Tumor xenografts were minced with scalpels blade into small pieces and then digested in DMEM/F12 medium containing 300 units/mL collagenase (Stem Cell Technologies) and 100 units/mL hyaluronidase (Stem Cell Technologies) for 1 hr at 37° C. Cells were then washed and re-suspended to a final concentration of 10^6 cell/mL in DMEM/2% FBS. Cell suspensions from the tumor samples were incubated with PE conjugated LGR5 or CXCR4 antibody for 30 minutes and washed two times with PBS buffer and then analyzed (FIG. 18A-B). […]
# [6] = compared to vehicle treated xenografts, flow cytometry
compound,measurement,setting,value
O=c1cc(-c2ccc(OS(=O)(=O)O)c(OS(=O)(=O)O)c2)oc2cc(OS(=O)(=O)O)cc(OS(=O)(=O)O)c12 [G1.4],BMI-1 expression,[1],no such changes
same,c-MYC expression,[1],no such changes
same,induction of apoptosis in spheroid cells,[2],no such effects
same,Screen 1 outcome (spheroid versus monolayer growth inhibition),HT-29 cells; 100 μM,completely failed
same,reduction in LGR5 (hi) cells,LGR5,< 15%
same,"reduction of expression of CSC markers (CD44, CD133, EpCAM, LGR5, CXCR-4)",[3],no effect
O=c1c(OS(=O)(=O)[O-])c(-c2ccc(OS(=O)(=O)[O-])c(OS(=O)(=O)[O-])c2)oc2cc(OS(=O)(=O)[O-])cc(OCCCOc3cc(OS(=O)(=O)[O-])cc4oc(-c5ccc(OS(=O)(=O)[O-])c(OS(=O)(=O)[O-])c5)c(OS(=O)(=O)[O-])c(=O)c34)c12.[Na+].[Na+].[Na+].[Na+].[Na+].[Na+].[Na+].[Na+] [G2.2],reduction in tumor volume,"HCT116 cells; between days 5-19, intratumoral, not statistically significant (p>0.1)",20-42%
same,attenuation of CXCR4 positive cells in xenografts,HCT116 cells; [6],~75%
same,attenuation of LGR5 positive cells in xenografts,HCT116 cells; [6],~78%
same,BMI-1 expression,[1],significant inhibition
same,OCT-4 levels,[1],little effect
same,c-MYC expression,[1],significant inhibition
same,induction of apoptosis in spheroid cells,[2],2 to 3 fold
same,induction of apoptosis in CSC-poor monolayer counterparts,[2]; monolayer cells,did not induce apoptosis
same,proportion of spheroid cells in G1 phase (cell cycle progression),HT-29 colon cancer cells,small increase
same,IC50,"HT-29 cells; steep dose-response profile, read-out: apparent IC50 for primary spheroid inhibition",~58 µM
same,CK20 expression (colonic differentiation marker),CK20,modest induction
same,reduction in LGR5 (hi) cells,LGR5,39%
same,mRNA levels of several CSC markers,CSC markers mRNA,marked decrease
same,"inhibition of spheroid formation, potency relative to HT-29",HCT-116,essentially identical potency
same,"inhibition of spheroid formation, potency relative to HT-29",[4],essentially identical potency
same,inhibition of monolayer growth (bulk tumor cells),HT-29 cell line,minimal effect
same,overall animal weight,[5],no effect
same,"protein expression of CSC markers (LGR5, CXCR4)",[3]; 6 hours,minimal change
same,"protein expression of CSC markers (LGR5, CXCR4)",[3]; 24 hours,significant decrease
same,"reduction of expression of CSC markers (CD44, CD133, EpCAM, LGR5, CXCR-4)",[3],25-55%
